{
  "source": "patent US6589965B2",
  "about": "“Method of treating and preventing migraine headaches” (Pharmacia & Upjohn Company, priority 2001, dated 2003)",
  "key": {"[1]": {"tested_on": "migraine headache", "conditions": "cited from earlier work; for efficacy in acute treatment of migraine (in words): literature reports"}, "[2]": {"tested_on": "quinpirole-induced yawning in rats", "assay": "antagonism of quinpirole-induced yawning in rats", "assay_type": "in vivo, Male Sprague Dawley Rats", "description": "Yawning is a behavior that has been linked to activation of dopaminergic neurotransmission.\nMale Sprague Dawley Rats were used in this example. The animals were allowed 12 day acclimatization before testing and at the time of the study, their body weights ranged from 280-330 grams. The rats were housed in standard size steel cages with four animals per cage and were maintained on a 12 hour light/dark schedule with the lights being on from 6:00 a.m. to 6:00 p.m. All tests were performed between 8:00 a.m. and 2:00 p.m. Six animals were used per group.\nThe animals were then placed individually in a 6″×6″plexiglass observation cages and the number of yawns were counted for the subsequent 30 minutes. The results are shown in FIG. 1 with the data being expressed as the mean total number of yawns per 30 minutes. An analysis of variance was used for statistical calculations and probability levels of <0.05 was regarded as being statistically significant."}, "[3]": {"tested_on": "migraine", "conditions": "literature reports; cited from earlier work"}, "[4]": {"biological_target": "D2 dopamine receptor (Homo sapiens, UniProt P14416)", "sequence (P14416 whole entry)": "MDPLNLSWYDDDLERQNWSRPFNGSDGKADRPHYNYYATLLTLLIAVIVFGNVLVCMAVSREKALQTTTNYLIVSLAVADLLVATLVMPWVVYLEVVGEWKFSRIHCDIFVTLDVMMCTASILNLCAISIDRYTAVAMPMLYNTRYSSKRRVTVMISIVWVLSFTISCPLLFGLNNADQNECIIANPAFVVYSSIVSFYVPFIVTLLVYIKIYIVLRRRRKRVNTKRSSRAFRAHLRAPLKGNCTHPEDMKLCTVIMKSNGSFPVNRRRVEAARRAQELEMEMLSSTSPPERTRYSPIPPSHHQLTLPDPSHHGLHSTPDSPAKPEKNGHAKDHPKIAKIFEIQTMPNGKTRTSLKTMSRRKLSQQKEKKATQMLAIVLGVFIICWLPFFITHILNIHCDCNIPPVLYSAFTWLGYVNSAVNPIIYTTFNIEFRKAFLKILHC", "conditions": "cited from earlier work"}, "[5]": {"conditions": "within 60 minutes of administration, randomized, double-blind clinical trial (Jones et al 1989)"}},
  "data": [
    {"smiles": "CN(C)CCCN1c2ccccc2Sc2ccc(Cl)cc21", "note": "[Chlorpromazine]", "values": [
      {"measurement": "efficacy in acute treatment of migraine (in words)", "setting": "[1]", "value": "highly effective"},
      {"measurement": "common side effect", "setting": "[1]; migraine patients in an emergency department (Lane et al 1985)", "value": "moderate drowsiness"}
    ]},
    {"smiles": "CCCN1CCC[C@@H](c2cccc(S(C)(=O)=O)c2)C1", "note": "[Cmpd 1, S-(−)-3-[3-(methylsulfonyl)phenyl]-1-propyl-piperidine]", "values": [
      {"measurement": "antagonism of the yawning behavior induced by quinpirole", "setting": "[2]; 10 or 30 mg/kg injected 15 minutes before quinpirole 0.1 mg/kg", "value": "dose-dependent and complete antagonism"},
      {"measurement": "induction of yawning behavior by compound given alone", "setting": "[2]; given alone at a dose of 30 mg/kg", "value": "failed to induce yawning behavior"}
    ]},
    {"smiles": "O=c1[nH]c2ccccc2n1CCCN1CCC(n2c(=O)[nH]c3cc(Cl)ccc32)CC1", "note": "[Domperidone]", "values": [
      {"measurement": "preventive / prophylactic effect on migraine (in words)", "setting": "[3]", "value": "prevent the occurrence of a migraine"}
    ]},
    {"smiles": "Fc1ccc(C(c2ccc(F)cc2)N2CCN(C/C=C/c3ccccc3)CC2)cc1", "note": "[Flunarizine]", "values": [
      {"measurement": "affinity for the D2 dopamine receptor (in words)", "setting": "[4]", "value": "moderate degree of affinity"},
      {"measurement": "efficacy in acute treatment of migraine (in words)", "setting": "[1]", "value": "high degree of relief"}
    ]},
    {"smiles": "CCN(CC)CCNC(=O)c1cc(Cl)c(N)cc1OC", "note": "[Metoclopramide]", "values": [
      {"measurement": "affinity for the D2 dopamine receptor (in words)", "setting": "[4]", "value": "relatively low affinity"},
      {"measurement": "preventive / prophylactic effect on migraine (in words)", "setting": "[3]", "value": "beneficial effect"}
    ]},
    {"smiles": "CN1CCN(CCCN2c3ccccc3Sc3ccc(Cl)cc32)CC1", "note": "[Prochlorperazine]", "values": [
      {"measurement": "efficacy in acute treatment of migraine (in words)", "setting": "[1]", "value": "high degree of efficacy"},
      {"measurement": "additional patients with partial relief", "setting": "[1]; [5]", "value": 14, "unit": "%"},
      {"measurement": "patients with complete relief", "setting": "[1]; [5]", "value": 74, "unit": "%"}
    ]},
    {"smiles": "O=C(CCCN1CCC(O)(c2ccc(Cl)cc2)CC1)c1ccc(F)cc1", "note": "[haloperidol]", "values": [
      {"measurement": "patients with headache completely or substantially relieved", "setting": "[1]; Fisher, J Emerg Med 1995", "value": "six of six"},
      {"measurement": "time to headache relief after administration", "setting": "[1]; Fisher, J Emerg Med 1995", "value": "25 to 65", "unit": "min"}
    ]}
  ]
}
